Source: patent US9896442B2, “Antifungal treatment” (Wisconsin Alumni Research Foundation, priority 2010, dated 2018)

Experiments:
Aspergillus fumigatus = test: Agar disk diffusion; assay type: cell-based; conditions: disks containing 1 μg of test compound; FIG. 4
Experimental: Small molecule activity against the fungal pathogens Candida albicans and Aspergillus fumigatus was evaluated using an agar disk diffusion assay. Yeast (1×10^4) from an overnight culture of C. albicans was suspended in 600 μl of top agar (1% yeast extract (ThermoFisher), 2% peptone (ThermoFisher), 2% dextrose (Sigma), and 0.5% agar (Fisher)). This suspension was spread and allowed to solidify on 5 ml of base agar (YPD media containing 2% agar) in the well of a 6-well plate. Disks (6 mm AA, Whatman Inc., Piscataway, N.J., Cat#2017-006) were aseptically placed on a sterile Petri dish lid. Compounds selected from stage II (1 μg total) were each suspended in 100% dimethyl sulfoxide (DMSO) to a total volume of 5 μl, added to separate disks, and allowed to dry for five minutes. Fludioxonil (Sigma) and DMSO-only disks served as positive and negative controls, respectively. Disks were placed into separate wells and incubated at room temperature for 48 hours. Antifungal activity was determined based on the size of the zone of inhibition of C. albicans growth.
Activity against A. fumigatus was determined following the aforementioned disk diffusion assay. The protocol only differed in that 6.0×10^5 conidia were used instead of yeast, and the plates were incubated at 37° C. for 48 hours instead of room temperature (FIG. 4).

Candida albicans biofilm = test: In vitro biofilm drug synergy (checkerboard, XTT); assay type: cell-based; conditions: for growth reduction: alone and in combination; for Synergy with Fluconazole by fractional inhibitory concentration (FIC): FIC from EC25, values ≦0.5 indicate synergy, FIG. 9
Experimental: Candida biofilms were formed in 96-well flat-bottom polystyrene plates (Fischer) as described previously ([…], Crawford K, Andes D R. Optimizing a Candida Biofilm Microtiter Plate Model for Measurement of Antifungal Susceptibility by XTT Assay. J. Clin. Microbiol. 2011 Jan., 2). Cells from an overnight culture grown in YPD shaking at 37° C. were enumerated by hemocytometer and suspended in RPMI-MOPS (Fisher) at a concentration of 10^6 cells/ml. A 100 μl of inoculum was added to each well of the plate. After 6 h incubation at 37° C., biofilms were gently washed twice with phosphate-buffered saline (PBS) to remove unattached cells. […] The ranges of concentrations of the fluconazole used included the standard doses given to humans. After overnight incubation at 37° C., biofilms were washed twice with PBS. Measurement of biofilm cell metabolic activity using the XTT reduction assay was performed as previously described ([…], Crawford K, Andes D R. Optimizing a Candida Biofilm Microtiter Plate Model for Measurement of Antifungal Susceptibility by XTT Assay. J. Clin. Microbiol. 2011 January, […], and Andes D. Synergistic Effect of Calcineurin Inhibitors and Fluconazole against Candida albicans Biofilms. Antimicrob Agents Chemother. 2008 March; 52(3): 1127-1132). Briefly, 90 μl of XTT at 1 mg/ml (Sigma) and 10 μl phenazine methosulfate at 320 μg/ml (Sigma) were added to each well, and the plate was incubated at 37° C. for 2 h. Viable cell number was assessed using the Absorbance at 492nm measured using an automated plate reader. Assays were performed in duplicate. The drug concentration resulting in a 25% reduction in optical density compared to the no-drug control wells was determined (EC25).

[1] = test system: Candida albicans biofilms; test: Candida biofilm XTT reduction assay; assay type: cell-based; conditions: 24 hours, FIG. 6
Experimental: Compound activity against C. albicans biofilm was assessed using a 96-well plate format as previously described by Nett et al. (15). Briefly, the C. albicans inoculum was prepared by diluting an overnight culture grown at 37° C. in RPMI-MOPS to 1×10^6 in RPMI-MOPS based on hemocytometer counts. An aliquot of 100 μl of the inoculum was added to each well of a 96-well flat-bottom polystyrene plate. After a 6-h incubation at 37° C., the wells were washed with phosphate-buffered saline (PBS) three times to remove any non-adherent cells. Fresh medium and fluconazole (Sigma), compound 13, and compound 33 were added and the plates were incubated at 37° C. for 24 hours. The XTT reduction assay was used to quantify the viability of biofilm cell as previously described (11). Briefly, 90 μl of (2,3)-bis-(2-Methoxy-4-Nitro-5-Sulphenyl)-(2H)-Tetrazolium-5-Carboxanilide (XTT; 1 mg/ml) (Sigma) and 10 μl phenazine methosulfate (320 μg/ml) (Sigma) were added to each well, and the plate was incubated for 2 h at 37° C. Cell viability was determined by measuring the absorbance at 490 nm using an automated plate reader. The biofilm growth assay was performed in duplicate.

[2] = test system: C. albicans resistant to conventional antifungals fluconazole and micafungin; test: Microbroth dilution (MIC), CLSI M27; assay type: cell-based, Candida albicans; conditions: FIG. 5B
Experimental: (§1) Clinical and Laboratory Standards Institute (CLSI) protocol M27 was used to quantify the minimum inhibitory concentration (MIC) of compounds 13 and 33 against yeast fungal pathogens (13). Briefly, compounds were solubilized in 100% DMSO and serially diluted two-fold in a 96 well plate in 100 μl of RPMI medium. A 100 μl aliquot of RPMI medium containing 3×10^3 yeast/ml of an overnight culture was then added to each well. Medium, medium+yeast, and medium+yeast+DMSO wells were prepared as controls. Each well was prepared in triplicate. The plates were incubated at 35° C. for 48 hours. The MIC concentration was defined as the concentration at which no growth was visible by eye and the results verified by plating on YPD agar. The experiment was performed in duplicate. MIC concentrations were also defined against filamentous fungi using the CLSI protocol M38 (14). This protocol only differed from M27 in that 100 μl of medium containing 4×10^5 spores/ml were added instead of yeast (FIG. 5A-I).

Drk1 reporter strain = Drk1 reporter strain corroboration; assay type: cell-based
Excerpt: The results of the Hik1 histidine kinase reporter strain were corroborated with a Drk1 reporter strain, especially regarding compounds 13 and 33. Dr. David Andes, Dr. Nancy Keller, and the clinical microbiology laboratory at the University of Wisconsin Hospital provided the microbial strains used in this study (9-12).

[3] = test system: drug resistant A. fumigatus; test: Microbroth dilution (MIC), CLSI M38; assay type: cell-based, Aspergillus fumigatus; conditions: FIG. 5I
Experimental: as §1

[4] = test system: wild type Aspergillus fumigatus; test: Microbroth dilution (MIC), CLSI M38; assay type: cell-based; conditions: FIG. 5H
Experimental: as §1

C. lusitaniae = test: Microbroth dilution (MIC), CLSI M27; assay type: cell-based; conditions: FIG. 5C
Experimental: as §1

C. krusei = test: Microbroth dilution (MIC), CLSI M27; assay type: cell-based; conditions: FIG. 5D
Experimental: as §1

Cryptococcus neoformans = test: Microbroth dilution (MIC), CLSI M27; assay type: cell-based; conditions: FIG. 5F
Experimental: as §1

C. glabrata = test: Microbroth dilution (MIC), CLSI M27; assay type: cell-based; conditions: FIG. 5E
Experimental: as §1

Candida albicans = test: Microbroth dilution (MIC), CLSI M27; assay type: cell-based; conditions: FIG. 5A
Experimental: as §1

C. gattii = test: Microbroth dilution (MIC), CLSI M27; assay type: cell-based; conditions: FIG. 5G
Experimental: as §1

Aspergillus flavus = test: Microbroth dilution against plant fungal pathogen; assay type: cell-based; conditions: four isolates of A. flavus; FIG. 8
Experimental: as §1, with “M38” left out, “5A-I). […] Briefly, the MICs of compounds 13 and 33 were determined for each of the 4 isolates and compared with the conventional antifungal compound, voriconazole (available from Sigma). […]” for “5A-I).”

Hik1 Saccharomyces = Hik1 Saccharomyces reporter strain growth assay (small molecule screen); assay type: cell-based; conditions: FIG. 2
Excerpt: To identify putative antifungals that act directly or indirectly through histidine kinase homologs of Drk1, we used a high throughput growth assay that uses a yeast reporter strain expressing a heterologous two-component sensor kinase (Hik1) to identify compounds that target the kinase and inhibit/kill the yeast. Hik1 and Drk1 are very closely related having near 80% amino acid sequence identity (FIG. 1). The Saccharomyces reporter contained an episomal plasmid with the hybrid histidine kinase Hik1 under the control of the galactose promoter (8). The Saccharomyces strain was provided by the Osada lab from RIKEN (Institute of Physical and Chemical Research, 2-1 Hirosawa, Wako, Saitama, 351-0198, Japan). It was used for screening initially. […]

[5] = FIG. 9A, compound 13 experiment: fluconazole at 62.5 ug/ml, 13 at 0.8 ug/ml
[6] = FIG. 9B, compound 33 experiment: fluconazole at 62.5 ug/ml, 33 at 1.6 ug/ml

Experimental for human red blood cells: Briefly, human red blood cells (RBCs) were isolated via FICOLL® (Sigma) gradient centrifugation and stored on ice. The RBCs were pelleted by centrifugation and washed with PBS a total of three times. A 2% RBC suspension in PBS was made and stored on ice for less than one hour. Drugs were suspended in DMSO and two-fold serial dilutions were prepared in PBS with a total volume of 100 μl in a 96-well round-bottom plate in triplicate. Wells containing PBS and Triton X-100 (Sigma) were used as negative and positive controls of hemolysis, respectively. A 100 μl aliquot of the 2% RBC suspension was then added to each well. The plate was then incubated at 37° C. for one hour. The plate was then centrifuged at 2,500 rpm for five minutes to pellet the RBCs. A 50 μl aliquot of the supernatant was transferred to a fresh 96-well plate, and absorbance at 405 nm was measured using an automated plate reader to quantify heme release.

Row | Compound | Inhibition of Aspergillus growth (zone of inhibition) (Aspergillus fumigatus) | growth reduction (Candida albicans biofilm; [5]) [%] | growth reduction (Candida albicans biofilm; [6]) | Concentration inhibiting Candida biofilm growth [1] [µg/mL] | Activity (MIC, cumulative inhibition) [2] | Synergy with Fluconazole by fractional inhibitory concentration (FIC) (Candida albicans biofilm) | Hemolysis (heme release, absorbance at 405 nm) compared with amphotericin B (human red blood cells) | Hik1 reporter strain results corroborated with Drk1 reporter strain (Drk1 reporter strain) | Activity (MIC, cumulative inhibition) [3] | Activity (MIC, cumulative inhibition) [4] | Activity (MIC, cumulative inhibition) (C. lusitaniae) | Activity (MIC, cumulative inhibition) (C. krusei) | Activity (MIC, cumulative inhibition) (Cryptococcus neoformans) | Activity (MIC, cumulative inhibition) (C. glabrata) | Activity (MIC, cumulative inhibition) (Candida albicans) | Activity (MIC, cumulative inhibition) (C. gattii) | Cumulative inhibition of Aspergillus flavus (Aspergillus flavus) | Growth of Hik1 Saccharomyces on galactose with fludioxonil (Hik1 Saccharomyces; galactose (Hik1 induced)) | Growth of Hik1 Saccharomyces in glucose with fludioxonil (Hik1 Saccharomyces; glucose, which does not induce Hik1)
1 | C[C@@H]1[C@H](O)[C@@H](C)/C=C/C=C/C=C/C=C/C=C/C=C/C=C/[C@H](O[C@@H]2O[C@H](C)[C@@H](O)[C@H](N)[C@@H]2O)C[C@@H]2O[C@](O)(C[C@@H](O)C[C@@H](O)[C@H](O)CC[C@@H](O)C[C@@H](O)CC(=O)O[C@H]1C)C[C@H](O)[C@H]2C(=O)O [amphotericin B, reference compound] | created zones of inhibition |  |  |  |  |  |  |  |  |  |  |  |  |  |  |  |  |  | 
2 | OC(Cn1cncn1)(Cn1cncn1)c1ccc(F)cc1F [fluconazole, reference compound] |  | 15 | approximately 6% | > 1000 |  |  |  |  |  |  |  |  |  |  |  |  |  |  | 
3 | O=[N+]([O-])c1ccc(/C=C/c2ccc([N+](=O)[O-])o2)cc1 [Compound 13] | inhibited growth | 18 |  |  | active | synergy | less hemolytic | corroborated | active | active | active | active | active | active | active | active | inhibition |  | 
4 | CSc1nnc(Sc2ncc([N+](=O)[O-])s2)s1 [Compound 33] | inhibited growth |  | approximately 9% |  | active | synergy | less hemolytic | corroborated | active | active | active | active | active | active | active | active | inhibition |  | 
5 | N#Cc1c[nH]cc1-c1cccc2c1OC(F)(F)O2 [fludioxonil] | created zones of inhibition |  |  |  |  |  |  |  |  |  |  |  |  |  |  |  |  | inhibited Saccharomyces growth | uninhibited
